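96-well plates; 48 h exposure; 5 concentrations. Endpoints by linear interpolation between flanking doses. Not reached: highest tested concentration assigned. Here, GI50 denotes the concentration required for 50% inhibition of growth. TGI: concentration producing complete growth inhibition.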
Experiments:
Experiment in all cases: growth of human tumour cells (NCI), 48 h
UACC-62 melanoma = test system: UACC-62 melanoma
SNB-19 CNS = test system: SNB-19 CNS
786-0 renal = test system: 786-0 renal
SF-295 CNS = test system: SF-295 CNS
SK-MEL-2 melanoma = test system: SK-MEL-2 melanoma
SF-268 CNS = test system: SF-268 CNS
OVCAR-4 ovarian = test system: OVCAR-4 ovarian
UO-31 renal = test system: UO-31 renal
HCT-116 colon = test system: HCT-116 colon
RXF 393 renal = test system: RXF 393 renal

| SMILES | TGI (UACC-62 melanoma) [µM] | TGI (SNB-19 CNS) [µM] | TGI (786-0 renal) [µM] | TGI (SF-295 CNS) [µM] | TGI (SK-MEL-2 melanoma) [µM] | TGI (SF-268 CNS) [µM] | TGI (OVCAR-4 ovarian) [µM] | TGI (UO-31 renal) [µM] | TGI (HCT-116 colon) [µM] | TGI (RXF 393 renal) [µM] | GI50 (UACC-62 melanoma) [µM] | GI50 (SNB-19 CNS) [µM] | GI50 (786-0 renal) [µM] | GI50 (SF-295 CNS) [µM] | GI50 (SK-MEL-2 melanoma) [µM] | GI50 (SF-268 CNS) [µM] | GI50 (OVCAR-4 ovarian) [µM] | GI50 (UO-31 renal) [µM] | GI50 (HCT-116 colon) [µM] | GI50 (RXF 393 renal) [µM] |
| --- | --- | --- | --- | --- | --- | --- | --- | --- | --- | --- | --- | --- | --- | --- | --- | --- | --- | --- | --- | --- |
| CCC1CCc2c(c(=O)oc3c2cc(OC)c2cccc(OC)c23)C1 (centres undefined) | > 100 | > 100 | > 100 | > 100 | > 100 | > 100 | > 100 | > 100 | > 100 | 89.9 | – | – | – | – | – | – | – | – | – | – |
| COc1c[c]([Hg][O]C(C)=O)c(OC)c(NC(=O)CC(C)=O)[c]1[Hg][O]C(C)=O | 24.1 | 12.3 | 7.71 | > 55.8 | 28.2 | 18.9 | 30 | 33.3 | 34.8 | 7.3 | 11.4 | 5.56 | 2.48 | > 41.7 | 13.8 | 13.6 | 15.9 | 19.2 | 13.1 | 2.86 |
| O=C(CSC1CCc2ccccc21)N/N=C/c1ccccc1O (centres undefined) | 13.6 | > 100 | > 100 | > 100 | 24.6 | > 100 | 92.5 | 17 | 65.6 | 61.3 | 2.82 | 6.11 | 6.87 | 6.84 | 5.26 | 3.33 | 1.55 | 0.985 | 5.01 | 5.27 |
| CCn1c(=O)c2c(=O)c3c4c(oc3oc2c2ccccc21)C(=O)c1ccccc1C4=O | > 100 | > 100 | > 100 | > 100 | > 100 | > 100 | 1.5 | > 100 | > 100 | > 100 | > 25 | > 57.7 | > 22.7 | > 24.2 | > 100 | > 71 | 0.376 | > 100 | – | > 31.7 |
| Cc1nc([N+](=O)[O-])cn1CC(=N)N | > 100 | > 100 | > 100 | > 100 | > 100 | > 100 | > 100 | > 100 | > 100 | > 100 | – | – | – | – | – | – | – | – | – | – |

— PubChem BioAssay (NCI)
